Here are results for 39 compounds from patent US12522602B2, “Derivatives having 2,3-dihydro-1H-indene or 2,3-dihydrobenzofuran moiety or pharmaceutically acceptable salt thereof and pharmaceutical compositions comprising the same” (YUHAN CORPORATION, priority 2019, dated 2026).

This experiment has as its system GM1 production in Jurkat cells. In words: cells. The experiment is classed as cell-based. As to conditions: Homo sapiens, Jurkat, 72 h.
One may read the IC50 as the concentration needed to halve the response being measured. Consider `O=C(NC1CCc2cc(-c3ccc(F)cc3)ccc21)O[C@@H]1CN2CCC1CC2` (stereo partly drawn) [Example 1, (S)-quinuclidin-3-yl (5-(4-fluorophenyl)-2,3-dihydro-1H-inden-1-yl)carbamate], for which the IC50 turned out to be 139 nM. In turn, `O=C(NC1CCc2cc(-c3ccc(Cl)cc3)ccc21)O[C@@H]1CN2CCC1CC2` (stereo partly drawn) [Example 2, (S)-quinuclidin-3-yl (5-(4-chlorophenyl)-2,3-dihydro-1H-inden-1-yl)carbamate] returned a half-inhibitory concentration (IC50) of 202 nM.

Compound `O=C(NC1CCc2cc(-c3ccc(C(F)(F)F)cc3)ccc21)O[C@@H]1CN2CCC1CC2` (stereo partly drawn) [Example 3, (S)-quinuclidin-3-yl (5-(4-(trifluoromethyl)phenyl)-2,3-dihydro-1H-inden-1-yl)carbamate] registered an IC50 of 142 nM. The figure for `O=C(NC1CCc2cc(-c3ccc(OC(F)(F)F)cc3)ccc21)O[C@@H]1CN2CCC1CC2` (stereo partly drawn) [Example 4, (S)-quinuclidin-3-yl (5-(4-(trifluoromethoxy)phenyl)-2,3-dihydro-1H-inden-1-yl)carbamate] is 95.8 nM; for `O=C(NC1CCc2cc(-c3cccc(F)c3)ccc21)O[C@@H]1CN2CCC1CC2` (stereo partly drawn) [Example 5, (S)-quinuclidin-3-yl (5-(3-fluorophenyl)-2,3-dihydro-1H-inden-1-yl)carbamate] it is 70.2 nM; for `O=C(NC1CCc2cc(-c3cccc(Cl)c3)ccc21)O[C@@H]1CN2CCC1CC2` (stereo partly drawn) [Example 6, (S)-quinuclidin-3-yl (5-(3-chlorophenyl)-2,3-dihydro-1H-inden-1-yl)carbamate] it is 39.4 nM. Next, `O=C(NC1CCc2cc(-c3cccc(C(F)(F)F)c3)ccc21)O[C@@H]1CN2CCC1CC2` (stereo partly drawn) [Example 7, (S)-quinuclidin-3-yl (5-(3-(trifluoromethyl)phenyl)-2,3-dihydro-1H-inden-1-yl)carbamate]: 36.8 nM; `O=C(NC1CCc2cc(-c3cccc(OC(F)(F)F)c3)ccc21)O[C@@H]1CN2CCC1CC2` (stereo partly drawn) [Example 8, (S)-quinuclidin-3-yl (5-(3-(trifluoromethoxy)phenyl)-2,3-dihydro-1H-inden-1-yl)carbamate]: 27.4 nM; `O=C(NC1CCc2cc(-c3ccccc3F)ccc21)O[C@@H]1CN2CCC1CC2` (stereo partly drawn) [Example 9, (S)-quinuclidin-3-yl (5-(2-fluorophenyl)-2,3-dihydro-1H-inden-1-yl)carbamate]: 93.1 nM. On to `O=C(NC1CCc2cc(-c3ccccc3Cl)ccc21)O[C@@H]1CN2CCC1CC2` (stereo partly drawn) [Example 10, (S)-quinuclidin-3-yl (5-(2-chlorophenyl)-2,3-dihydro-1H-inden-1-yl)carbamate], for which the IC50 stood at 65.5 nM. On to `O=C(NC1CCc2cc(-c3ccccc3C(F)(F)F)ccc21)O[C@@H]1CN2CCC1CC2` (stereo partly drawn) [Example 11, (S)-quinuclidin-3-yl (5-(2-(trifluoromethyl)phenyl)-2,3-dihydro-1H-inden-1-yl)carbamate], for which the midpoint of inhibition, the IC50, lay at 123 nM. The compound `O=C(NC1CCc2cc(-c3ccccc3OC(F)(F)F)ccc21)O[C@@H]1CN2CCC1CC2` (stereo partly drawn) [Example 12, (S)-quinuclidin-3-yl (5-(2-(trifluoromethoxy)phenyl)-2,3-dihydro-1H-inden-1-yl)carbamate] came in with a half-maximal inhibitory concentration (IC50) of 73 nM. Take `Cc1ccc(-c2ccc3c(c2)CCC3NC(=O)O[C@@H]2CN3CCC2CC3)cc1` (stereo partly drawn) [Example 13, (S)-quinuclidin-3-yl (5-(p-tolyl)-2,3-dihydro-1H-inden-1-yl)carbamate]: the concentration for half-maximal inhibition (IC50) is 41.7 nM. As to `O=C(NC1CCc2cc(-c3ccc(OC(F)F)cc3)ccc21)O[C@@H]1CN2CCC1CC2` (stereo partly drawn) [Example 14, (S)-quinuclidin-3-yl (5-(4-(difluoromethoxy)phenyl)-2,3-dihydro-1H-inden-1-yl)carbamate], the IC50 worked out at 54.3 nM. `O=C(NC1CCc2cc(-c3ccc(F)c(F)c3)ccc21)O[C@@H]1CN2CCC1CC2` (stereo partly drawn) [Example 15, (S)-quinuclidin-3-yl (5-(3,4-difluorophenyl)-2,3-dihydro-1H-inden-1-yl)carbamate] yielded a half-inhibitory concentration (IC50) of 34.4 nM. In the case of `O=C(NC1CCc2cc(-c3ccc(F)cc3F)ccc21)O[C@@H]1CN2CCC1CC2` (stereo partly drawn) [Example 16, (S)-quinuclidin-3-yl (5-(2,4-difluorophenyl)-2,3-dihydro-1H-inden-1-yl)carbamate], half-maximal inhibition (IC50) required 56.1 nM. The compound `O=C(NC1CCc2cc(-c3cccc(F)c3F)ccc21)O[C@@H]1CN2CCC1CC2` (stereo partly drawn) [Example 17, (S)-quinuclidin-3-yl (5-(2,3-difluorophenyl)-2,3-dihydro-1H-inden-1-yl)carbamate] displayed a half-maximal inhibitory concentration (IC50) of 27.6 nM.

`O=C(NC1CCc2cc(-c3cc(F)ccc3F)ccc21)O[C@@H]1CN2CCC1CC2` (stereo partly drawn) [Example 18, (S)-quinuclidin-3-yl (5-(2,5-difluorophenyl)-2,3-dihydro-1H-inden-1-yl)carbamate]: the half-maximal inhibitory concentration (IC50) was determined as 31.6 nM. Take `O=C(NC1CCc2cc(-c3cc(F)cc(F)c3)ccc21)O[C@@H]1CN2CCC1CC2` (stereo partly drawn) [Example 19, (S)-quinuclidin-3-yl (5-(3,5-difluorophenyl)-2,3-dihydro-1H-inden-1-yl)carbamate]: the half-maximal inhibitory concentration (IC50) worked out at 20.3 nM. The figure for `O=C(NC1CCc2cc(-c3ccc(F)c(F)c3F)ccc21)O[C@@H]1CN2CCC1CC2` (stereo partly drawn) [Example 20, (S)-quinuclidin-3-yl (5-(2,3,4-trifluorophenyl)-2,3-dihydro-1H-inden-1-yl)carbamate] is 126 nM; for `O=C(NC1CCc2cc(-c3cc(F)c(F)cc3F)ccc21)O[C@@H]1CN2CCC1CC2` (stereo partly drawn) [Example 21, (S)-quinuclidin-3-yl (5-(2,4,5-trifluorophenyl)-2,3-dihydro-1H-inden-1-yl)carbamate] it is 127 nM. Compound `O=C(NC1CCc2cc(-c3cc(Cl)cc(Cl)c3)ccc21)O[C@@H]1CN2CCC1CC2` (stereo partly drawn) [Example 22, (S)-quinuclidin-3-yl (5-(3,5-dichlorophenyl)-2,3-dihydro-1H-inden-1-yl)carbamate] came in with an IC50 of 89.6 nM. The figure for `O=C(NC1CCc2cc(-c3ccc(Cl)c(Cl)c3)ccc21)O[C@@H]1CN2CCC1CC2` (stereo partly drawn) [Example 23, (S)-quinuclidin-3-yl (5-(3,4-dichlorophenyl)-2,3-dihydro-1H-inden-1-yl)carbamate] is 63.7 nM; for `O=C(NC1CCc2cc(-c3cc(Cl)ccc3Cl)ccc21)O[C@@H]1CN2CCC1CC2` (stereo partly drawn) [Example 24, (S)-quinuclidin-3-yl (5-(2,5-dichlorophenyl)-2,3-dihydro-1H-inden-1-yl)carbamate] it is 17.4 nM; for `O=C(NC1CCc2ccc(-c3ccc(F)cc3)cc21)O[C@@H]1CN2CCC1CC2` (stereo partly drawn) [Example 25, (S)-quinuclidin-3-yl (6-(4-fluorophenyl)-2,3-dihydro-1H-inden-1-yl)carbamate] it is 106 nM. On to `O=C(NC1CCc2ccc(-c3ccc(Cl)cc3)cc21)O[C@@H]1CN2CCC1CC2` (stereo partly drawn) [Example 26, (S)-quinuclidin-3-yl (6-(4-chlorophenyl)-2,3-dihydro-1H-inden-1-yl)carbamate], for which the midpoint of inhibition, the IC50, lay at 67.2 nM. Compound `O=C(NC1CCc2ccc(-c3ccc(C(F)(F)F)cc3)cc21)O[C@@H]1CN2CCC1CC2` (stereo partly drawn) [Example 27, (S)-quinuclidin-3-yl (6-(4-(trifluoromethyl)phenyl)-2,3-dihydro-1H-inden-1-yl)carbamate] gave a 50% inhibitory concentration (IC50) of 35.7 nM. Compound `O=C(NC1CCc2ccc(-c3ccc(OC(F)(F)F)cc3)cc21)O[C@@H]1CN2CCC1CC2` (stereo partly drawn) [Example 28, (S)-quinuclidin-3-yl (6-(4-(trifluoromethoxy)phenyl)-2,3-dihydro-1H-inden-1-yl)carbamate] registered a half-inhibitory concentration (IC50) of 52 nM. Take `O=C(NC1CCc2ccc(-c3cccc(F)c3)cc21)O[C@@H]1CN2CCC1CC2` (stereo partly drawn) [Example 29, (S)-quinuclidin-3-yl (6-(3-fluorophenyl)-2,3-dihydro-1H-inden-1-yl)carbamate]: the IC50 came to 63 nM. Turning to `O=C(NC1CCc2ccc(-c3cccc(Cl)c3)cc21)O[C@@H]1CN2CCC1CC2` (stereo partly drawn) [Example 30, (S)-quinuclidin-3-yl (6-(3-chlorophenyl)-2,3-dihydro-1H-inden-1-yl)carbamate], the IC50 worked out at 107 nM.

`O=C(NC1CCc2ccc(-c3cccc(C(F)(F)F)c3)cc21)O[C@@H]1CN2CCC1CC2` (stereo partly drawn) [Example 31, (S)-quinuclidin-3-yl (6-(3-(trifluoromethyl)phenyl)-2,3-dihydro-1H-inden-1-yl)carbamate] gave an IC50 of 65.5 nM. As for `O=C(NC1CCc2ccc(-c3cccc(OC(F)(F)F)c3)cc21)O[C@@H]1CN2CCC1CC2` (stereo partly drawn) [Example 32, (S)-quinuclidin-3-yl (6-(3-(trifluoromethoxy)phenyl)-2,3-dihydro-1H-inden-1-yl)carbamate], 120 nM corresponded to half-maximal inhibition (IC50). On to `O=C(NC1CCc2ccc(-c3ccc(OC(F)F)cc3)cc21)O[C@@H]1CN2CCC1CC2` (stereo partly drawn) [Example 37, (S)-quinuclidin-3-yl (6-(4-(difluoromethoxy)phenyl)-2,3-dihydro-1H-inden-1-yl)carbamate], for which the IC50 was 55.2 nM. As for `Cc1ccc(-c2ccc3c(c2)C(NC(=O)O[C@@H]2CN4CCC2CC4)CC3)cc1` (stereo partly drawn) [Example 38, (S)-quinuclidin-3-yl (6-(p-tolyl)-2,3-dihydro-1H-inden-1-yl)carbamate], the IC50 is 62 nM. For the compound `O=C(NC1CCc2ccc(-c3ccc(F)c(F)c3)cc21)O[C@@H]1CN2CCC1CC2` (stereo partly drawn) [Example 39, (S)-quinuclidin-3-yl (6-(3,4-difluorophenyl)-2,3-dihydro-1H-inden-1-yl)carbamate], the half-inhibitory concentration (IC50) is 51.9 nM.

Compound `O=C(NC1CCc2ccc(-c3ccc(F)cc3F)cc21)O[C@@H]1CN2CCC1CC2` (stereo partly drawn) [Example 43, (S)-quinuclidin-3-yl (6-(2,4-difluorophenyl)-2,3-dihydro-1H-inden-1-yl)carbamate] gave a 50% inhibitory concentration (IC50) of 183 nM. In turn, `O=C(NC1CCc2ccc(-c3cc(F)c(F)cc3F)cc21)O[C@@H]1CN2CCC1CC2` (stereo partly drawn) [Example 44, (S)-quinuclidin-3-yl (6-(2,4,5-trifluorophenyl)-2,3-dihydro-1H-inden-1-yl)carbamate] came in with an IC50 of 35.2 nM.

With `O=C(NC1CCc2ccc(-c3ccc(F)c(F)c3F)cc21)O[C@@H]1CN2CCC1CC2` (stereo partly drawn) [Example 45, (S)-quinuclidin-3-yl (6-(2,3,4-trifluorophenyl)-2,3-dihydro-1H-inden-1-yl)carbamate], the IC50 turned out to be 57.3 nM. `O=C(NC1CCc2ccc(-c3cc(Cl)ccc3Cl)cc21)O[C@@H]1CN2CCC1CC2` (stereo partly drawn) [Example 46, (S)-quinuclidin-3-yl (6-(2,5-dichlorophenyl)-2,3-dihydro-1H-inden-1-yl)carbamate] displayed a concentration for half-maximal inhibition (IC50) of 19.2 nM.
